Among the data in ChEMBL document CHEMBL1255174, “Synthesis and biological evaluation of a novel series of bis-salicylaldehydes as mushroom tyrosinase inhibitors” (Bioorg Med Chem Lett, 2010) are Ki and IC50 values, retold here.

As usually defined, the pKi is −log10 of the Ki, conventionally taken in molar units. A high value points to a small Ki. The term pIC50 denotes the IC50 on a negative log10 scale, so that one unit is a factor of ten. Lower therefore signals a large IC50.

pIC50, pKi: −log10 of the molar value.

In the first experiment the target is T1, Tyrosinase (Agaricus bisporus, UniProt O42713).
T1 sequence (O42713 whole entry): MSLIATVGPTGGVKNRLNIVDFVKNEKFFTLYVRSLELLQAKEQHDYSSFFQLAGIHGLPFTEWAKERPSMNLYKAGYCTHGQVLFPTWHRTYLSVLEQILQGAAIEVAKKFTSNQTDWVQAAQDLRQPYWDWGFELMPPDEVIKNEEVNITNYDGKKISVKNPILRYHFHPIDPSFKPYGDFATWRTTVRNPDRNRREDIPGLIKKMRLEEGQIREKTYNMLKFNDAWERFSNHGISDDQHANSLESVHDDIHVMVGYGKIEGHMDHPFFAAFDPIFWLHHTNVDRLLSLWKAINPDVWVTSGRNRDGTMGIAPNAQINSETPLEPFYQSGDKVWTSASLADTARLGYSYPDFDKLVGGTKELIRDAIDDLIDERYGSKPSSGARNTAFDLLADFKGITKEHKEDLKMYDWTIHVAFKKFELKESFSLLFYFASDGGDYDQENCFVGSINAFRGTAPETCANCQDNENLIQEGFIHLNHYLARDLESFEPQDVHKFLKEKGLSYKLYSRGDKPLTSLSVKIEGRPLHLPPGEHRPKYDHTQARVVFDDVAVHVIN
Briefly: Inhibition of mushroom tyrosinase by Lineweaver-Burke double reciprocal plot analysis.
On to `O=Cc1cc(Cc2ccc(O)c(C=O)c2)ccc1O`, for which the pKi was 4.32.

The next experiment has as its target T1, Tyrosinase.
Description: Inhibition of mushroom tyrosinase after 10 mins by L-DOPA oxidation assay
In the case of `COc1cc(O)c(C=O)cc1Cc1cc(C=O)c(O)cc1OC`, the pIC50 is 3.93.

For the molecule `O=Cc1cc(Cc2ccc(O)c(C=O)c2)ccc1O`, the pIC50 was 4.13.

Turning to `O=Cc1cc(Cc2cc(C=O)c(O)cc2O)c(O)cc1O`, the pIC50 was 4.12.

For `O=Cc1cc(Cc2cc(O)c(O)c(C=O)c2)cc(O)c1O`, the pIC50 is 3.28.

`COc1cc(Cc2cc(C=O)c(O)c(OC)c2)cc(C=O)c1O`: the pIC50 was 3.16.
